Test results as given in patent publication US11638723B2, “Method for generating T cells progenitors” (Assistance Publique—Hopitaux de Paris, priority 2017, dated 2023).

Experiments:
[1] = biological target: T1, Aryl hydrocarbon/Dioxin receptor (AhR) (Homo sapiens, UniProt P35869); settings: cited from earlier work
T1 sequence (P35869 11-848): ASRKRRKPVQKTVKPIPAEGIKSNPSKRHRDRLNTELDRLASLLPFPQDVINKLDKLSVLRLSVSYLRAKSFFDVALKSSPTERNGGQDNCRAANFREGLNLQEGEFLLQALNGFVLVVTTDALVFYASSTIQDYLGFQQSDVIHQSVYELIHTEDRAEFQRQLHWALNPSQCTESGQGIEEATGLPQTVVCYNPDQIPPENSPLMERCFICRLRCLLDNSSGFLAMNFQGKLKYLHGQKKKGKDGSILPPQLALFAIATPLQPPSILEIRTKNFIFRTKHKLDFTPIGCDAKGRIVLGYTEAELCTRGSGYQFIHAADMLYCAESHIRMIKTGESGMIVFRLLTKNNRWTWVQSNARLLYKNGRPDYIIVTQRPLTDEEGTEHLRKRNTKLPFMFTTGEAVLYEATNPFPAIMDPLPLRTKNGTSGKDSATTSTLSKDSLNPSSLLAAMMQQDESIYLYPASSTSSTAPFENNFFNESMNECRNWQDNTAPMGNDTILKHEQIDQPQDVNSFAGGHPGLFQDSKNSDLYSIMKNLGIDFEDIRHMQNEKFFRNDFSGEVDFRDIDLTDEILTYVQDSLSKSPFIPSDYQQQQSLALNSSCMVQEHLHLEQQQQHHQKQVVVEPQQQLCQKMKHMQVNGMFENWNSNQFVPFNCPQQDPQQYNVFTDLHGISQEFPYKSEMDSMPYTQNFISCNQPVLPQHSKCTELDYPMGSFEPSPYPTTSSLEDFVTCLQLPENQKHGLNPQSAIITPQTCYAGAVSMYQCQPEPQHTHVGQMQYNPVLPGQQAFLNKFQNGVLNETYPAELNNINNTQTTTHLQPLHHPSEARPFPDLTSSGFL

DL-4 T-cell precursors = assay: Analysis of T cell receptor rearrangement; assay type: cell-based, human
Description: TCR gene rearrangement analysis was performed in duplicate and on the two independently purified subsets (average is shown). TCR-δ quantification (D δ2-D δ3, D δ2-J δ1, and D δ3-J δ1) was performed with the listed sets of primers and probes. The analysis of TCR rearrangements by multiplex fluorescent PCR was performed by separation of fluorochrome-labeled single stand PCR products in a capillary sequencing polymer and detected via automated laser scanning.

[2] = system: CD34+ cells from cord blood; assay: DL-4 culture of CD34+ cells, T-cell precursor generation (flow cytometry); assay type: cell-based, human; settings: FIG. 9
Description: CD34+ cells from human CB or mobilized peripheral blood samples were cultured in 24-well plates or 6-well plates that had been coated with recombinant human fibronection (RetroNectin®, Clontech/Takara) and DL-4 (5 μg/ml, PX'Therapeutics, Grenoble, France). Coating was performed for 2 h at 37° C., DL-4 coated wells were then blocked with bovine serum albumin 2% (BSA) in phosphate-buffered saline (PBS) for 30 minutes at 37° C. and washed with PBS. […] Cultured cells were analyzed by fluorescence-activated cell sorting (FACS) after 3 and 7 days of culture on DL-4 respectively to exclude CD34-/CD7-myeloid cells from subsequent analyses.
Human cells were stained and analyzed using a Gallios analyzer (Beckman Coulter, Krefeld, Germany). […] The data were analyzed using FlowJo software (Treestar, Ashland, Oreg.) after gating on viable, 7AAD-negative cells.
The data were analyzed using FlowJo software (version 10.2, Treestar, Ashland, Oreg.) after gating on viable, 7AAD-negative cells.

Compound	IC50 [1] [nM]	TCRdelta rearrangements (DL-4 T-cell precursors; CB cells)	signs of TCR rearrangement (DL-4 T-cell precursors; after 7 days of culture)	T-cell differentiation, CD5+CD7+ cells at day 7 [2]
Cc1ccccc1N=Nc1ccc(NC(=O)c2ccnn2C)c(C)c1 [CH 223191]	30			
CC(C)n1cnc2c(NCCc3ccc(O)cc3)nc(-c3csc4ccccc34)nc21 [SR1, 4-(2-(2-(Benzo[b]thiophen-3-yl)-9-isopropyl-9H-purin-6-ylamino)ethyl)phenol]		Detection of D52-D53 rearrangements	do not exhibit any signs of TCR rearrangement	accelerates T-cell differentiation
